For one data set, the system named is rat CYP1A2. As to conditions: cited from earlier work.
A further data set concerns the target T1, P-gp (Homo sapiens, UniProt P08183).
T1 construct: host or cells: WM-266-4 human melanoma cells
As to the kind of experiment: P-gp inhibition, calcein-AM fluorometry assay in WM-266-4 cells. The data set is classed as cell-based. Particulars: probe calcein-AM (1 μM), all six concentrations 4.1~1,000 μM, response relative to verapamil at 100 μM. As to the method: One vial of WM-266-4 cells was thawed and cultured in a 15 cm culture dish overnight. Cells were split the next day and transferred onto a clear bottom 96-well plate with 5.0 × 10^4 cells per well. […] Verapamil was used as a positive control at a concentration of 100 μM and 1% DMSO was used as a negative control. After 30 min of incubation time, calcein-AM diluted with 50 μL culture media without serum was added to a concentration of 1 μM and the sample was incubated for an additional 30 min. The plates were placed in the Flexstation II (Molecular Devices) and fluorescence was measured at excitation and emission wavelengths of 494 and 517 nm, respectively.
The P-gp inhibitor verapamil was used as positive control at a concentration of 100 μM. The experiment was considered valid if an increase in fluorescence greater than 5-fold was observed. For P-gp inhibition, a compound with a response less than 25% of verapamil at 100 μM is normally reported as “negative” at the tested concentration. The percent response value was used to determine and report the P-gp interaction at the tested concentration. A response equal to or greater than 25% of verapamil at 100 μM was considered to be “positive” at the tested concentration.

A further data set concerns the target T2, CYP2D4 (Rattus norvegicus, UniProt Q64680).
T2 sequence (Q64680 1-500): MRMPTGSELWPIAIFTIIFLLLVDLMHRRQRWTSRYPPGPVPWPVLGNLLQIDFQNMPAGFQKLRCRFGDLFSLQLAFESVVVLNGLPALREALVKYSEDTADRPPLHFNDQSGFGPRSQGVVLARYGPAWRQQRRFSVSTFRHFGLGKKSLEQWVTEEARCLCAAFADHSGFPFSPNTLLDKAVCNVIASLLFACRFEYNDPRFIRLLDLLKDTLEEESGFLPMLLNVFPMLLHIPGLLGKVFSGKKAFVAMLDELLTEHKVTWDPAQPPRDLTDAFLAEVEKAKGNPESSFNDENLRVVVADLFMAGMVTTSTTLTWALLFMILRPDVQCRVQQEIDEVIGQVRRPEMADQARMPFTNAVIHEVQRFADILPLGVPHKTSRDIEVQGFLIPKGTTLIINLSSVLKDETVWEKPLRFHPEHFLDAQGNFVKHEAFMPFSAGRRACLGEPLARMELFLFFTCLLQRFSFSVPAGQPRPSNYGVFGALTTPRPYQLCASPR
Put plainly: CYP inhibition in rat liver microsomes, substrate cocktail, LC-MS/MS (dextromethorphan). Particulars: pH 7.4, probe dextromethorphan 5 μM, read-out: IC50 for RLM, CYP2D4 (table row CYP2D6). Format: in vitro ADME. From the text: Positive controls (furafyline for CYP1A2, montelukast for CYP2C8, sulfaphenazole for CYP2C9, S-(+)-N-3-benzylnirvanol for CYP2C19, quinidine for CYP2D6, ketoconazole for CYP3A4) and specific substrates (phenacetin for CYP1A2, paclitaxel for CYP2C8, diclofenac for CYP2C9, S-mephenytoin for CYP2C19, dextromethorphan for CYP2D6, midazolam for CYP3A4) are consistent with our previous papers. The substrates were used at concentrations approximately equal to their respective Michaelis-Menten constant (Km) values: 10 μM phenacetin, 5 μM paclitaxel, 5 μM diclofenac, 200 μM S-mephenytoin, 5 μM dextromethorphan, and 2 μM midazolam. NADP^+ was added after a 15 min preincubation of all other components at 37 °C. After a given incubation time (30 min), the reactions were terminated by addition of 60 μL ice-cold acetonitrile containing gemfibrozil and buspirone as internal standards. Incubation samples were stored at −80 °C until used in liquid chromatography-tandem mass spectrometry (LC-MS/MS) analysis. The mixture was centrifuged at 3,500 rpm for 5 min. The supernatant was mixed with equal volume of a 1:1 mixture of methanol and water and 20 μL of the final mixture was used for LC-MS/ MS analysis. […]
The CYP inhibition potential were evaluated by measuring the formation of one or more metabolites of the test substrates. […]

In a further data set the test system is UGT1A1. The arrangement: dose or concentration left out as unconfirmed. As to conditions: cited from earlier work.

Bounds are passed on as bounds.

T1 sequence (P08183 whole entry): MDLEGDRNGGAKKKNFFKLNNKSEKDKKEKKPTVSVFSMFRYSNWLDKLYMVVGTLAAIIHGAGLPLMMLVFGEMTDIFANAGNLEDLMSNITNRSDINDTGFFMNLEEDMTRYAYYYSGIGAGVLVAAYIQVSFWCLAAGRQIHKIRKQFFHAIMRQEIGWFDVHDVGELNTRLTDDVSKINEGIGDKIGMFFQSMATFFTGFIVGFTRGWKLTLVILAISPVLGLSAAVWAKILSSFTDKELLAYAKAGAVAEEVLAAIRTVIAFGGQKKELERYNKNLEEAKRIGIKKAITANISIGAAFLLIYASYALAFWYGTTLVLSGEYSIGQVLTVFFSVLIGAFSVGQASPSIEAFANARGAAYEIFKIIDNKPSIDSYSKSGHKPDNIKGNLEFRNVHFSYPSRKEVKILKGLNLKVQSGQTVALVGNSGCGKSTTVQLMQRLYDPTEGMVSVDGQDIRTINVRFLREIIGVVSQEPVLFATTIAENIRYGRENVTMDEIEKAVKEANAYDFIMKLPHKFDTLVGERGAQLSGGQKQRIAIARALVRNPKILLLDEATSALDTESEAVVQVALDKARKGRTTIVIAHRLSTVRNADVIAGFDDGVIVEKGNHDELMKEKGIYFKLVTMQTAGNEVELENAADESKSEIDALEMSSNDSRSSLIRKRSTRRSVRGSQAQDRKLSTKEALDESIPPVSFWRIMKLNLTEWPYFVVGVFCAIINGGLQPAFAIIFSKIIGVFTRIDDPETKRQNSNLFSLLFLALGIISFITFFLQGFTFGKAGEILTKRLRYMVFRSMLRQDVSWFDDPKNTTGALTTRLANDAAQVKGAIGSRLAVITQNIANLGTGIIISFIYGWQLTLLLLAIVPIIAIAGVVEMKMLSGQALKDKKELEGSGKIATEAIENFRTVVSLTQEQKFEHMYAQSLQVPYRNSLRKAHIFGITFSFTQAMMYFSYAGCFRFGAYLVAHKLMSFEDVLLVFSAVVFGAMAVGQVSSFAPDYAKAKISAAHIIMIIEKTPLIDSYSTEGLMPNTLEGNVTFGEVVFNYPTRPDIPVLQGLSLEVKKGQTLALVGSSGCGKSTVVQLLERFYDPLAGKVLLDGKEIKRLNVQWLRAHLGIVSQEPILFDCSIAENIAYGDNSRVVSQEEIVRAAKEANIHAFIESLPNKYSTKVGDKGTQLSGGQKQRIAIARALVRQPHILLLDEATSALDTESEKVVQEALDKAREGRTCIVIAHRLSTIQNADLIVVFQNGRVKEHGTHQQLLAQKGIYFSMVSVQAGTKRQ

Usually IC50 stands for the concentration needed to halve the response being measured. Usually Ki stands for a measure of affinity in units of concentration, obtained from inhibition or displacement. The inhibition is the share of the control response that was lost under treatment. For `O=C(O)[C@H]1O[C@@H](Oc2cc3oc(-c4ccc(O)cc4)cc(=O)c3c(O)c2O)[C@H](O)[C@@H](O)[C@@H]1O` [scutellarin, Scutellarin], the IC50 in the data set on rat CYP1A2 (in vitro experiments) was 108.2 ± 0.657 µM. Besides, the inhibition constant (Ki) in the data set on rat CYP1A2 (weak mixed-type inhibition, read-out: Ki against the activity of CYP1A2) was 95.2 µM. For the same compound, the inhibition at 60 min at P-gp is < 25%. Further, at CYP2D4, the IC50 at 30 min was > 100 µM. For the same compound, the “inhibition towards the activity of UGT1A1” value with UGT1A1 is 48.8%.

These data come from article PMC6271944 (Molecules, 2014).
